Patent publication US20250122191A1, “COMPOUNDS AS BCL-2 INHIBITORS” (Fochon Biosciences, Ltd, priority 2021, published 2025)

Tests used:
Format in all cases: cell-based
[1] = tested on: RS4;11-BCL-2 D103E cells; assay: Cell proliferation assay (MTS), RS4;11-BCL-2 D103E engineered cells; settings: Homo sapiens, 72 h, read-out: RS4, 11 BCL2-D103E IC50
From the text: MTS testing kit was purchased from Promega (Madison, WI, USA). The RPMI-1640, Fetal bovine serum and Penicillin-Streptomycin were purchased from BI (Biological Industries, Beit Haemek, Israel). Puromycin was purchased from Beyotime (shanghai, China). Dimethyl sulfoxide (DMSO) was purchased from Sigma (St. Louis., MO, USA). RS4;11-BCL-2 G101V (Cobioer Lot. #: CBD2021063013P4), RS4;11-BCL-2 D103E (Cobioer Lot. #: CBD2021063013P4), RS4;11-BCL-2 D103Y (Cobioer Lot. #: CBD2022012101P4) and RS4;11-BCL-2 F104L (Cobioer Lot. #: CBD2021063014P4) cells were cultured in RPMI1640 supplemented with 1 ug/mL puromycin, 100 U/mL Penicillin-Streptomycin and 10% FBS.
To investigate whether a compound is able to inhibit the activity of BCL-2 mutation in cells, a mechanism-based assay using engineered cell lines stably overexpressing BCL-2 mutation (RS4;11-BCL-2 G101V, RS4;11-BCL-2 D103E, RS4;11-BCL-2 D103Y, and RS4;11-BCL-2 F104L) was developed. In this assay, the inhibition of BCL-2 mutation was reflected by the inhibition of cell proliferation of engineered RS4;11 cells. Cells were plated into 96-well plates at optimized cell density (RS4;11-BCL-2 G101V: 5000 cells/well; RS4;11-BCL-2 D103E: 7500 cells/well; RS4;11-BCL-2 D103Y: 7500 cells/well; RS4;11-BCL-2 F104L: 5000 cells/well). Plates were incubated at 37° C., with 5% CO2 for 4 h (RS4;11-BCL-2 G101V, RS4;11-BCL-2 F104L) and 24 h (RS4;11-BCL-2 D103E, RS4;11-BCL-2 D103Y), respectively. Compounds were serially diluted and added to the plates with the final concentrations of 10000, 3333.3, 1111.1, 370.4, 123.5, 41.2, 13.7, 4.6 and 1.5 nM. Plates were incubated at 37° C., with 5% CO2 for 120 h (RS4; 11-BCL-2 G101V, RS4; 11-BCL-2 F104L) and 72 h (RS4;11-BCL-2 D103E, RS4;11-BCL-2 D103Y), respectively. 20 μl MTS was added into each well and the plates were incubated at 37° C., with 5% CO2 exactly for 2 h. The absorbance was measured by a microplate reader at 490 nm. IC50 values were calculated using GraphPad Prism 8.0 software.

[2] = tested on: Toledo cells; assay: Cell proliferation assay (MTS), Toledo cells; settings: Homo sapiens, 72 h
In short: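 Toledo cells (RPMI-1640, 10% FBS) seeded at 30000 cells/well, rested 4 h, then exposed 72 h at 37 °C, 5% CO2 to compound at nine final concentrations, 1.5–10000 nM. Viability by MTS (2 h), absorbance at 490 nm. IC50 from the concentration-response.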

[3] = tested on: RS4;11-BCL-2 G101V cells; assay: Cell proliferation assay (MTS), RS4;11-BCL-2 G101V engineered cells; settings: Homo sapiens, 120 h, read-out: RS4, 11 BCL2-G101V IC50
In short: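 Inhibition of mutant BCL-2 is inferred from reduced proliferation of RS4;11 cells stably overexpressing the mutant. Compounds are tested at 1.5–10000 nM for 120 h (G101V, F104L) or 72 h (D103E, D103Y), with MTS absorbance at 490 nm used to derive IC50.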

| Structure (SMILES) | IC50 [1] | IC50 [3] | IC50 [2] |
| --- | --- | --- | --- |
| CC(C)c1ccccc1[C@@H]1CN(CC2CCOCC2)CCN1C1CC2(CCN(c3ccc(C(=O)NS(=O)(=O)c4cnc(NC[C@H]5CC[C@](C)(O)CC5)c([N+](=O)[O-])c4)c(Oc4cnc5[nH]cc(F)c5c4)c3)CC2)C1 [Example 318, 2-((3-fluoro-1H-pyrrolo[2,3-b]pyridin-5-yl)oxy)-N-((6-((((1r,4r)-4-hydroxy-4-methylcyclohexyl)methyl)amino)-5-nitropyridin-3-yl)sulfonyl)-4-(2-((R)-2-(2-isopropylphenyl)-4-((tetrahydro-2H-pyran-4-yl)methyl)piperazin-1-yl)-7-azaspiro[3.5]nonan-7-yl)benzamide] | 1 nM | 1 nM | – |
| COCCN1CCN(C2CC3(CCN(c4ccc(C(=O)NS(=O)(=O)c5cnc(NC[C@H]6CC[C@](C)(O)CC6)c([N+](=O)[O-])c5)c(Oc5cc6c(F)c[nH]c6nc5OC)c4)CC3)C2)[C@H](c2ccccc2C(C)C)C1 [Example 129, 2-((3-fluoro-6-methoxy-1H-pyrrolo[2,3-b]pyridin-5-yl)oxy)-N-((6-((((1r,4r)-4-hydroxy-4-methylcyclohexyl)methyl)amino)-5-nitropyridin-3-yl)sulfonyl)-4-(2-((R)-2-(2-isopropylphenyl)-4-(2-methoxyethyl)piperazin-1-yl)-7-azaspiro[3.5]nonan-7-yl)benzamide] | 3 nM | – | 1 nM |
| COc1cc(CN2CCN(C3CC4(CCN(c5ccc(C(=O)NS(=O)(=O)c6cnc(NC[C@H]7CC[C@](C)(O)CC7)c([N+](=O)[O-])c6)c(Oc6cc7c(F)c[nH]c7nc6OC)c5)CC4)C3)[C@H](c3ccccc3C(C)C)C2)cnc1OC [Example 123, 4-(2-((R)-4-((5,6-dimethoxypyridin-3-yl)methyl)-2-(2-isopropylphenyl)piperazin-1-yl)-7-azaspiro[3.5]nonan-7-yl)-2-((3-fluoro-6-methoxy-1H-pyrrolo[2,3-b]pyridin-5-yl)oxy)-N-((6-((((1r,4r)-4-hydroxy-4-methylcyclohexyl)methyl)amino)-5-nitropyridin-3-yl)sulfonyl)benzamide] | 1 nM | 1 nM | – |
| CCOc1nc2[nH]cc(F)c2cc1Oc1cc(N2CCC3(CC2)CC(N2CCN(Cc4cnc(C5CC5)c(OC)c4)C[C@H]2c2ccccc2C(C)C)C3)ccc1C(=O)NS(=O)(=O)c1cnc(NC[C@H]2CC[C@](C)(O)CC2)c([N+](=O)[O-])c1 [Example 253, 4-(2-((R)-4-((6-cyclopropyl-5-methoxypyridin-3-yl)methyl)-2-(2-isopropylphenyl)piperazin-1-yl)-7-azaspiro[3.5]nonan-7-yl)-2-((6-ethoxy-3-fluoro-1H-pyrrolo[2,3-b]pyridin-5-yl)oxy)-N-((6-((((1r,4r)-4-hydroxy-4-methylcyclohexyl)methyl)amino)-5-nitropyridin-3-yl)sulfonyl)benzamide] | 3 nM | 1 nM | – |
| CC(C)c1ccccc1[C@@H]1CN(C2CCOCC2)CCN1C1CC2(CCN(c3ccc(C(=O)NS(=O)(=O)c4cnc(NC[C@H]5CC[C@](C)(O)CC5)c([N+](=O)[O-])c4)c(Oc4cnc5[nH]cc(F)c5c4)c3)CC2)C1 [Example 320, 2-((3-fluoro-1H-pyrrolo[2,3-b]pyridin-5-yl)oxy)-N-((6-((((1r,4r)-4-hydroxy-4-methylcyclohexyl)methyl)amino)-5-nitropyridin-3-yl)sulfonyl)-4-(2-((R)-2-(2-isopropylphenyl)-4-(tetrahydro-2H-pyran-4-yl)piperazin-1-yl)-7-azaspiro[3.5]nonan-7-yl)benzamide] | 1 nM | 1 nM | – |
| COc1nc2[nH]cc(F)c2cc1Oc1cc(N2CCC3(CC2)CC(N2CCN(C[C@H]4COCCO4)C[C@H]2c2ccccc2C(C)C)C3)ccc1C(=O)NS(=O)(=O)c1cnc(NC[C@H]2CC[C@](C)(O)CC2)c([N+](=O)[O-])c1 [Example 328, 4-(2-((R)-4-(((S)-1,4-dioxan-2-yl)methyl)-2-(2-isopropylphenyl)piperazin-1-yl)-7-azaspiro[3.5]nonan-7-yl)-2-((3-fluoro-6-methoxy-1H-pyrrolo[2,3-b]pyridin-5-yl)oxy)-N-((6-((((1r,4r)-4-hydroxy-4-methylcyclohexyl)methyl)amino)-5-nitropyridin-3-yl)sulfonyl)benzamide] | 1 nM | 1 nM | – |
| CC(C)c1ccccc1[C@@H]1CN(C(C)C)CCN1C1CC2(CCN(c3ccc(C(=O)NS(=O)(=O)c4cnc(NC[C@H]5CC[C@](C)(O)CC5)c([N+](=O)[O-])c4)c(Oc4cnc5[nH]cc(F)c5c4)c3)CC2)C1 [Example 185, 2-((3-fluoro-1H-pyrrolo[2,3-b]pyridin-5-yl)oxy)-N-((6-((((1r,4r)-4-hydroxy-4-methylcyclohexyl)methyl)amino)-5-nitropyridin-3-yl)sulfonyl)-4-(2-((R)-4-isopropyl-2-(2-isopropylphenyl)piperazin-1-yl)-7-azaspiro[3.5]nonan-7-yl)benzamide] | 1 nM | 1 nM | – |
| COc1cc(CN2CCN(C3CC4(CCN(c5ccc(C(=O)NS(=O)(=O)c6cnc(NC[C@H]7CC[C@](C)(O)CC7)c([N+](=O)[O-])c6)c(Oc6cnc7[nH]cc(F)c7c6)c5)CC4)C3)[C@H](c3ccccc3C(C)C)C2)cnc1OC [Example 259, 4-(2-((R)-4-((5,6-dimethoxypyridin-3-yl)methyl)-2-(2-isopropylphenyl)piperazin-1-yl)-7-azaspiro[3.5]nonan-7-yl)-2-((3-fluoro-1H-pyrrolo[2,3-b]pyridin-5-yl)oxy)-N-((6-((((1r,4r)-4-hydroxy-4-methylcyclohexyl)methyl)amino)-5-nitropyridin-3-yl)sulfonyl)benzamide] | 1 nM | 1 nM | – |

More lines, in order of falling IC50 [1], values ahead:

| IC50 [1] | IC50 [3] | Structure (SMILES) | IC50 [2] |
| --- | --- | --- | --- |
| 1 nM | – | CC(C)c1ccccc1[C@@H]1CN(Cc2ccc(S(C)(=O)=O)cc2)CCN1C1CC2(CCN(c3ccc(C(=O)NS(=O)(=O)c4cnc(NC[C@H]5CC[C@](C)(O)CC5)c([N+](=O)[O-])c4)c(Oc4cnc5[nH]cc(F)c5c4)c3)CC2)C1 [Example 329, 2-((3-fluoro-1H-pyrrolo[2,3-b]pyridin-5-yl)oxy)-N-((6-((((1r,4r)-4-hydroxy-4-methylcyclohexyl)methyl)amino)-5-nitropyridin-3-yl)sulfonyl)-4-(2-((R)-2-(2-isopropylphenyl)-4-(4-(methylsulfonyl)benzyl)piperazin-1-yl)-7-azaspiro[3.5]nonan-7-yl)benzamide] | 1 nM |
| 1 nM | 1 nM | COc1nc2[nH]cc(F)c2cc1Oc1cc(N2CCC3(CC2)CC(N2CCN(C4CCC(OC)CC4)C[C@H]2c2ccccc2C(C)C)C3)ccc1C(=O)NS(=O)(=O)c1cnc(NC[C@H]2CC[C@](C)(O)CC2)c([N+](=O)[O-])c1 (stereo partly drawn) [Example 325, 2-((3-fluoro-6-methoxy-1H-pyrrolo[2,3-b]pyridin-5-yl)oxy)-N-((6-((((1r,4r)-4-hydroxy-4-methylcyclohexyl)methyl)amino)-5-nitropyridin-3-yl)sulfonyl)-4-(2-((R)-2-(2-isopropylphenyl)-4-(4-methoxycyclohexyl)piperazin-1-yl)-7-azaspiro[3.5]nonan-7-yl)benzamide] | – |
| 1 nM | 1 nM | CC(C)c1ccccc1[C@@H]1CN(C[C@H]2COCCO2)CCN1C1CC2(CCN(c3ccc(C(=O)NS(=O)(=O)c4cnc(NC[C@H]5CC[C@](C)(O)CC5)c([N+](=O)[O-])c4)c(Oc4cnc5[nH]cc(F)c5c4)c3)CC2)C1 [Example 330, 4-(2-((R)-4-(((S)-1,4-dioxan-2-yl)methyl)-2-(2-isopropylphenyl)piperazin-1-yl)-7-azaspiro [3.5]nonan-7-yl)-2-((3-fluoro-1H-pyrrolo[2,3-b]pyridin-5-yl)oxy)-N-((6-((((1r,4r)-4-hydroxy-4-methylcyclohexyl)methyl)amino)-5-nitropyridin-3-yl)sulfonyl)benzamide] | – |
